Assay results from patent publication US11590117B2, “Treatment of a hematologic malignancy with 2-(4-chlorophenyl)-n-((2-(2,6-dioxopiperidin-3-yl)-1-oxoisoindolin-5-yl)methyl)-2,2-difluoroacetamide” (priority 2016, dated 2023).
“And” between values parts separate entries of the source, which are not always exact repeats. Equal entries are not always repeated. Where two headings read alike, the source gives them in different places.

What was measured:
[1] = test system: leukemic cells of AML bone marrow samples; experiment: Ex vivo flow cytometry (ExviTech) assay in AML donor bone marrow samples; format: cell-based, human; conditions: for Emax: 100% minus YMin; for depletion of leukemic cells, on average: sensitive patient samples
Procedure: (§1) Patient Samples: The study included bone marrow (BM) samples from adult patients over 18 years of age who were diagnosed with AML. Samples were analyzed in two different batches with the first batch containing 10 patients (donors assigned identification codes containing CG1) and the second comprising the remaining 20 donors (assigned identification codes containing CG3). Corresponding clinical data was not available for the second batch of 20 patient samples at the time of writing.
(§2) Experimental Study Design: To evaluate and characterize the ex vivo pharmacology of Compound 1 in malignant cells and normal lymphocytes of bone marrow samples from thirty donors with acute myeloid leukemia using a flow cytometry-based platform (ExviTech) (Bennett, et al Clin Lymphoma Myeloma Leuk 2014 August; 14(4):305-318).
(§3) On Day 1, the donor sample was received. A small part was separated for validation, and the majority was diluted with culture medium (Roswell Park Memorial Institute (RPMI) 1640) and plated into 96-well plates previously prepared with a range of Compound 1 concentrations. The number of live leukemic cells seeded in each well was fixed between 8000 and 32,000, depending on the percentage of leukemic cells for each sample. The plates were incubated for 24, 48, or 96 hours. Antibodies anti-D34, anti-CD117, anti-HLA-DR, anti-CD45, anti-CD14, anti-CD64, anti-CD13, anti-CD11b) or Annexin V were added to identify leukemic cells using a gating strategy based on forward scatter (FSC) or side scatter (SSC) and expression or lack of expression of different surface markers. The monoclonal antibody selection was performed to optimize the identification of leukemic cells in each sample. The aim of this analysis was not the phenotypic characterization but only the identification of these cells. Accordingly, the markers that Euroflow (van Dongen et al, Leukemia 2012 September; 26(9):1908-1975) has designated as the “backbone markers” for AML (CD34, CD45, CD117) and human leukocyte antigen-DR (HLA-DR) were included in the combination. They allowed the identification of the leukemic cells in almost 90% of AML patients. Additional panels, CD34/CD14/CD64/CD45 and CD34/CD11b/CD13/CD45, were also used to complete the identification of the myeloid leukemic population. This allowed for the selection of the two best antibodies for unequivocal identification of the pathological cell population in each particular sample.
(§4) Live leukemic cells were identified by their light scattering properties classified as high, intermediate, or low (eg, FSC^int/hi/SSC^int) in the absence of Annexin V fluorescein isothiocyanate (FITC) staining. Forward scatter/side scatter selection was performed to exclude debris. The average percentage of cell viability on receipt of the sample was greater than 50% (samples were only processed if the viability was greater than 50%). In some AML donor samples, sufficient normal, non-tumoral lymphocyte cells could be counted, and the effect of Compound 1 was measured in this cell population. Non-tumoral lymphocytes were identified by bright expression of CD45, FSC^low/SSC^low and absence of myeloid markers (CD117, CD11b, and CD13).
(§5) Detailed descriptions of methods used have been published previously (Bennett, et al Clin Lymphoma Myeloma Leuk 2014 August; 14(4):305-318). Briefly, BM samples were extracted under sterile conditions in hospitals of origin and were received within 24 hours of extraction. Initial analysis evaluated the number of pathological cells and their viability. Different volumes of sample (1 μL, 3 μL, 5 μL, and 7 μL) were transferred in duplicate into a 96-well plate. To lyse red blood cells, 180 μL of ammonium chloride lysis solution (2 g KHCO3, 16.58 g NH4Cl, 0.074 g disodium ethylenediaminetetraacetic acid ⋅2H2O, and H2O adjusted to […]) was added to each well. Following a 10-minute incubation period at 4° C., each plate was centrifuged for 5 minutes at 1200 rpm, and the supernatant removed. […]

[2] = test system: normal lymphocytes of AML bone marrow samples; experiment: as above; format: cell-based, human
Procedure: as §1, §2, §3, §4, §5

[3] = test system: HL-60 human AML cells; experiment: HL-60 IV AML xenograft model, survival study; format: in vivo, SCID mice
Procedure: In this study, Compound 1 antitumor activity in the HL-60 IV AML xenograft model was studies. In this model, HL-60 human AML cells engraft in host BM and internal organs (eg, spleen, liver) and animals develop progressive peripheral leukocytosis. Female severe combined immunodeficiency (SCID) mice were inoculated with HL-60 cells by tail vein injection. To understand the effect of Compound 1 on the xenografted HL-60 cells, animals were dosed intraperitoneal (IP) with vehicle or Compound 1 (0.5, 1, 2.5, and 5 mg/kg) once daily (QD)×5 between Weeks 3 and 4 post-engraftment (AP6516, survival study) or animals were dosed IP twice daily (BID) with vehicle or Compound 1 for 5 or 10 consecutive days (5 mg/kg BID×5 or 2.5 mg/kg, BID×10) between Weeks 6 and 8 post-engraftment (Study AP6982, % human CD33+[hCD33+] cells in BM).
Tumor burden from the peripheral blood of HL-60-bearing animals was assessed by fluorescence-activated cell sorting (FACS) at Week 7 post-tumor cell inoculation. […] Mice from the vehicle control and Compound 1 treatment groups succumbed to disease burden starting on Day 54 for the vehicle control group and between Day 51 and Day 57 for the Compound 1 treatment groups. […] One mouse (1/8) from the 2.5 mg/kg Compound 1-treated group survived to study termination on Day 162.

In the case of O=C1CCC(N2Cc3cc(CNC(=O)C(F)(F)c4ccc(Cl)cc4)ccc3C2=O)C(=O)N1 (stereo not drawn) [Compound 1, 2-(4-chlorophenyl)-N-((2-(2,6-dioxopiperidin-3-yl)-1-oxoisoindolin-5-yl)methyl)-2,2-difluoroacetamide], the “patient samples sensitive to Compound 1” value ([1]; 30 fresh AML bone marrow samples) is reported as 26 out of 30, the Emax ([1]; Homo sapiens, 96 h, Leukemic (LIVE) cells, 96 hours incubation, per AML donor sample, read-out: Emax) is reported as 98% and the EC50 ([1]; Homo sapiens, 96 h, sensitive AML patient samples (26 out of 30), across all three time points (24, 48, 96 hours), read-out: EC50 (range)) is reported as 2 to 160 nM. The EC50 ([1]; Homo sapiens, 96 h, sensitive AML patient samples (26 out of 30), across all three time points (24, 48, 96 hours), read-out: mean EC50) was 21 nM, the Emax ([1]; Leukemic (LIVE) cells, 24 hours incubation, per AML donor sample) was 64.3% and 83.1% and the EC50 ([1]; Leukemic (LIVE) cells, 24 hours incubation, per AML donor sample, unit not printed in table (2 to 160 nM), read-out: EC50) was 13 nM. For the same molecule, the Emax ([1]; Leukemic (LIVE) cells, 48 hours incubation, per AML donor sample) was 99.8%, the Emax ([1]; Leukemic (LIVE) cells, 96 hours incubation, per AML donor sample) was 100.0% and 99.9% and 99.6% and the EC50 ([1]; Leukemic (LIVE) cells, 96 hours incubation, per AML donor sample, unit not printed in table (2 to 160 nM), read-out: EC50) was 5 nM. For the same molecule, the “depletion of leukemic blasts” value ([1]; four patient samples categorized as insensitive, at 24 and 48 hours) was no more than 68%, the “depletion of leukemic cells, on average” value ([1]; by 48 hours) was greater than 92% and the “depletion of leukemic cells, on average” value ([1]; by 96 hours) was greater than 98%. For the same molecule, the Emax ([2]; Homo sapiens, Lymphocyte, normal lymphocytes in patient samples where sufficient could be counted, from 24 to 96 hours, read-out: Emax, averaged) was 46 to 76%, the Emax ([2]; Lymphoid (LIVE) cells, 48 hours incubation, per AML donor sample, 100% minus YMin) was 69.4% and the EC50 ([2]; Lymphoid (LIVE) cells, 48 hours incubation, per AML donor sample, unit inferred) was 43 nM. The “mice surviving to study termination on Day 162” value ([3]; 2.5 mg/kg group) was 1/8, the overall survival ([3]; 0.5, 1, 2.5, 5 mg/kg IP QD×5 between Weeks 3 and 4 post-engraftment) was “No overall survival benefit” and the “tumor burden from peripheral blood (FACS)” value ([3]; Week 7 post-tumor cell inoculation, 0.5, 1, 2.5, 5 mg/kg IP QD×5, vs vehicle) was “No effect”.
